Results published in patent US20210106567A1, “COMPOSITIONS AND METHODS FOR INHIBITING CARP-1 BINDING TO NEMO” (United States Government As Represented By The Department …, priority 2019, published 2021).
Ends that are not written are not given here.

Key:
MDA-MB-468 TNBC cells = assay: MTT cell viability, SNI-1 analogs; type: cell-based, human; details: 24 h
Experimental: FIGS. 22A-B show SNI-1 analogs enhance Adriamycin inhibition of TNBC cell growth. FIGS. 22A-B show cells treated with indicated dose of noted agent for 24 h, and their viabilities determined by MTT assay. Columns represent means of three independent experiments; bars, SE.
MDA-MB-468 TNBC cells were next treated with each of the analog in vitro as a single agent or in combination with Adriamycin in vitro.

[1] = system: parental and chemo-resistant human and murine TNBC cells and parental renal cancer cells; assay: Cytokine ELISA of culture media, chemotherapy-induced secretion; type: cell-based; details: single agent
NEMO (221-260) peptide = molecular target: T1, NEMO (221-260) peptide (Homo sapiens, UniProt Q9Y6K9); assay: Surface Plasmon Resonance kinetics of CARP-1 peptide binding with NEMO peptide; details: SPR
T1 construct: host or cells: chemical synthesis
T1 sequence (Q9Y6K9 222-261, one chain of several): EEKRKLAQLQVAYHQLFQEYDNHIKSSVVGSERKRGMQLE
Experimental: Next, kinetics of CARP-1 binding with NEMO were determined by Surface Plasmon Resonance (SPR) Technology (Profacgen, Shirley, N.Y.). Briefly, CARP-1 (551-580) peptide (Amino terminal-[…]-Carboxyl terminal; SEQ ID NO: 6) was dissolved in water, and various concentrations of CARP-1 Peptide were manually printed onto the bare gold-coated (thickness 47 nm) PlexArray Nanocapture Sensor Chip (Plexera Bioscience, Seattle, Wash., US) at 40% humidity. Each concentration was printed in replicate, and each spot contained 0.2 μL of sample solution. The chip was incubated in 80% humidity at 4° C. for overnight, and rinsed with 10×PBST for 10 min, 1×PBST for 10 min, and deionized water twice for 10 min. The chip was then blocked with 5% (w/v) non-fat milk in water overnight, and washed with 10×PBST for 10 min, 1×PBST for 10 min, and deionized water twice for 10 min before being dried under a stream of nitrogen prior to use. The binding reactions with NEMO (221-260; SEQ ID NO: 7) peptide (Amino terminal-[…]-Carboxyl terminal; SEQ ID NO: 7) were performed in PBST buffer (0.01M phosphate buffered saline (0.138 M NaCl; 0.0027 M KCl), 0.05% Tween-20, pH 7.4). SPRi measurements were performed with PlexAray HT (Plexera Bioscience, Seattle, Wash., US). […] The signal changes after binding and washing (in AU) were recorded as the assay value. Selected protein-grafted regions in the SPR images were analyzed, and the average reflectivity variations of the chosen areas were plotted as a function of time. Real-time binding signals were recorded and analyzed by Data Analysis Module (DAM, Plexera Bioscience, Seattle, Wash., US). […]
Association and dissociation rate constants were calculated by numerical integration and global fitting to a 1:1 interaction model and the equation: dRU(t)/dt=kaC(R^max−RU(t))−kdRU(t), where RU(t) is the response at time t, Rmax is the maximum response, C is the concentration of analyte in solution, ka is the association rate constant, kd is the dissociation rate constant, and RU (0)=0.

[2] = molecular target: T2, Flag-CARP-1 (546-580) binding with Biotin-NEMO (221-261) (Homo sapiens, UniProt Q8IX12); assay: AlphaLISA assay of CARP-1/NEMO peptide binding (HTS format); details: read-out: IC50, inhibition of binding of CARP-1 (546-580) with NEMO (221-261) peptide
T2 construct: Flag-tagged CARP-1 (546-580); purchased Peptides America, Fairfax, Va; host or cells: chemical synthesis
T2 sequence (Q8IX12 546-580 limits assumed): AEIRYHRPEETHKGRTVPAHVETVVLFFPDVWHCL
Source text: The predicted kinetics of interaction of CARP-1 (551-600; SEQ ID NO: 5) and NEMO (221-261; SEQ ID NO: 2) epitopes was further validated by utilizing respective, chemically synthesized peptides to determine their in-solution binding by SPR technology (Sekhar et al. (2019) Cancers (Basel) 11). […] On the collective basis of the data in FIG. 1, and biophysical and SPR data above, in vitro binding assays were developed utilizing chemically synthesized CARP-1 and NEMO peptides. In the first instance, CARP-1 (551-580; SEQ ID NO: 6) and NEMO (221-261; SEQ ID NO: 2) peptides were used to carry out buffer optimization and DMSO tolerance of the assay. […] Presence of 0.01% tween minimizes non-specific binding and generates higher reproducibility as noted by smaller error bars in FIG. 15A. […]
The AlphaLISA assay for high throughput screening: For screening of a library of chemical compounds, an […] assay was developed and optimized for use in 384-well format (SAMDI Tech, Chicago, Ill.). […] The assay signal (Fluorescence) was measured at 680 nm excitation and 615 nm emission wavelengths to determine assay robustness and DMSO tolerance. […] The plates were read on a Pherastar FS plate reader. […] Those wells were further analyzed to investigate the 8 compounds individually in duplicate.

Compound | loss of cell viability in combination with Adriamycin versus Adriamycin alone (MDA-MB-468 TNBC cells) | further results
Cc1ccc(-n2ccnc2S(=O)(=O)CC(=O)c2ccc(O)c(O)c2)cc1 [GL-213] | loss of cell viabilities that were greater | 
Cc1ccc(-n2cnnc2[S+]([O-])CC(=O)c2ccc(O)c(O)c2)cc1 (stereo not shown) [GL-209] | loss of cell viabilities that were greater | 
Cc1ccc(-n2ccnc2SCC(=O)c2ccc(O)c(O)c2)cc1 [GL-211] | minimal reduction in cell viabilities | 
O=C(CSc1nc(-c2ccccc2)cs1)c1ccc(O)c(O)c1 [GL-216] | loss of cell viabilities that were greater | 
O=c1[nH]cc(F)c(=O)[nH]1 [5-FU] |  | levels of TNFα, IL-8, and IL-1β in the media [1]: robust increase
O=C(CSc1nc2ccccc2s1)c1ccc(O)c(O)c1 [GL-215] | moderate reduction in cell viabilities | 
Cc1ccc(-n2cnnc2SCC(=O)c2ccc(O)c(O)c2)cc1 [GL-208] | minimal reduction in cell viabilities | 
HRPEETHKGRTVPAHVETVVLFFPDVWHCL [CARP-1 (551-580)] |  | Kd (NEMO (221-260) peptide; chemically synthesized peptides, read-out: equilibrium dissociation constant (KD Value)): 0.102 µM; kon (NEMO (221-260) peptide; read-out: Ka (association rate constant)): 2070 M⁻¹ s⁻¹; koff (NEMO (221-260) peptide; read-out: Kd (dissociation rate constant)): 0.000212 s⁻¹
Cc1ccc(-n2cnnc2S(=O)(=O)CC(=O)c2ccc(O)c(O)c2)cc1 [GL-210] | minimal reduction in cell viabilities | 
COc1ccc(S(=O)(=O)Nc2ccccc2C(=O)NCCc2ccccc2)cc1 [SNI-2, 2-{((4-methoxyphenyl)sulfonyl)amino}-N-(2-phenylethyl)benzamide] |  | IC50 [2]: ~25 µM
Cc1ccc(-n2ccnc2[S+]([O-])CC(=O)c2ccc(O)c(O)c2)cc1 (stereo not shown) [GL-212] | moderate reduction in cell viabilities | 
